Test results taken from patent US5707977A, “Watersoluble azole antifungals” (Janssen Pharmaceutica, N.V., priority 1996, dated 1998).
In brackets after ≈: the same amount, converted by molar mass. Counter-ions that a name gives are not always drawn.

Tests used:
[1] = tested on: Candida albicans; experiment: Mouse triple mycosis model: vaginal candidosis; assay type: in vivo; set-up: unit not given here; conditions: treatment for 5 days, mice
Description: (§1) The test compounds were evaluated for their activity in a mouse model of fungal infection in which three mycoses--vaginal candidosis, cutaneous trichophytosis and disseminated aspergillosis--were established simultaneously. The mice, in groups of 10, were pretreated with subcutaneous injections of oestradiol valerate (500 μg) then inoculated on day 0 with the following: 100 000 colony forming units (CFU)/g of Aspergillus fumigatus B 19119 intravenously, a suspension containing 10^8 Candida albicans cells intravaginally and a aqueous suspension of Trichophyton quinckeanum on lightly scarified dorsal skin. Treatment with the test compounds (orally or intravenously) was begun on the day of infection and continued for 5 days.

[2] = tested on: Trichophyton quinckeanum; experiment: Mouse triple mycosis model: cutaneous dermatophytosis (trichophytosis); assay type: in vivo; set-up: unit not given here; conditions: treatment for 5 days, mice
Description: as §1

[3] = Solubility in water and in 0.1N HCl (1 hour shaking at room temperature, UV-spectroscopy); assay type: physicochemical
Description: An excess of compound was added to 5 ml of solvent (the type of solvent is specified in the table). The mixture was shaken during 1 hour at room temperature. The precipitate was filtered off. The concentration of the compound was measured via UV-spectroscopy and is shown in the column "Solubility".

[4] = tested on: Candida albicans; experiment: Mouse disseminated Candida model; assay type: in vivo; conditions: IV route; treatment repeated daily for 9 days; mice
Description: Mice in groups of 10 were infected intravenously with 8×10^5 CFU of Candida albicans. Treatment was begun on the day of infection and repeated daily for 9 days. Candida albicans CFU/g kidney were measured for all mice that died spontaneously or were killed on day 10.
The table indicates the lowest concentrations of the shown compounds that achieved a reduction in mean Candida counts of 1 log (i.e. a 10-fold reduction) or more, either in the triple mycosis model or the disseminated Candida infection; also the lowest concentrations that reduced mean skin scores below 1.0 in the cutaneous dermatophytosis component of this model (NT=nor tested, IV=intravenous).

[5] = 0.1n hcl, solvent: 0.1N HCl, measured pH 1.25 to 1.75
[6] = water, solvent: water, measured pH 6.65 to 7.01

Structure (SMILES): CC(C)(C)C(Cn1ncn(-c2ccc(N3CCN(c4ccc(OC[C@H]5CO[C@](Cn6cncn6)(c6ccc(F)cc6F)O5)cc4)CC3)cc2)c1=O)OP(=O)(O)O (mixture of isomers) [Compound 17, (±)-cis-4-[4-[4-[4-[[2-(2,4-difluorophenyl)-2-(1H-1,2,4-triazol-1-ylmethyl)-1,3-dioxolan-4-yl]methoxy]phenyl]-1-piperazinyl]phenyl]-2-[3,3-dimethyl-2-(phosphonooxy)butyl]-2,4-dihydro-3H-1,2,4-triazol-3-one hemihydrate]
- lowest concentration, Vaginal Candida CFU reduced by 1 log or more ([1]; IV route, hemihydrate): < 2.5
- lowest concentration, Dermatophyte skin score reduced to ≤1 ([2]; IV route, hemihydrate): < 2.5

Structure (SMILES): CC(C)(C)C(Cn1ncn(-c2ccc(N3CCN(c4ccc(OC[C@H]5CO[C@](Cn6cncn6)(c6ccc(F)cc6F)O5)cc4)CC3)cc2)c1=O)OC(=O)CCN (mixture of isomers) [Compound 36, (±)-cis-1-[[4-[4-[4-[4-[[2-(2,4-difluorophenyl)-2-(1H-1,2,4-triazol-1-ylmethyl)-1,3-dioxolan-4-yl]methoxy]phenyl]-1-piperazinyl]phenyl]-4,5-dihydro-5-oxo-1H-1,2,4-triazol-1-yl]methyl]-2,2-dimethylpropyl β-alanine monohydrochloride]
- solubility at 1 h [3, 5]: > 6000 µg/mL

Structure (SMILES): CC(C)(C)C(Cn1ncn(-c2ccc(N3CCN(c4ccc(OC[C@H]5CO[C@](Cn6cncn6)(c6ccc(F)cc6F)O5)cc4)CC3)cc2)c1=O)OC(=O)CN (stereo partly drawn) [Compound 38]
- solubility at 1 h [3, 5]: > 6000 µg/mL

Structure (SMILES): CN1CCN(CC(=O)OC(Cn2ncn(-c3ccc(N4CCN(c5ccc(OC[C@H]6CO[C@](Cn7cncn7)(c7ccc(F)cc7F)O6)cc5)CC4)cc3)c2=O)C(C)(C)C)CC1 (stereo partly drawn) [Compound 29]
- solubility at 1 h [3, 5]: 4890 µg/mL (≈ 5.71 mM)

Structure (SMILES): CN1CCN(CC(=O)OC(Cn2ncn(-c3ccc(N4CCN(c5ccc(OC[C@H]6CO[C@](Cn7cncn7)(c7ccc(F)cc7F)O6)cc5)CC4)cc3)c2=O)C(C)(C)C)CC1 (mixture of isomers) [Compound 34, (±)-cis-1-[[4-[4-[4-[4-[[2-(2,4-difluorophenyl)-2-(1H-1,2,4-triazol-1-ylmethyl)-1,3-dioxolan-4-yl]methoxy]phenyl]-1-piperazinyl]phenyl]-4,5-dihydro-5-oxo-1H-1,2,4-triazol-1-yl]methyl]-2,2-dimethylpropyl 4-methyl-1-piperazineacetate monohydrochloride]
- lowest concentration, Vaginal Candida CFU reduced by 1 log or more ([1]; IV route): 2.5
- lowest concentration, Vaginal Candida CFU reduced by 1 log or more ([1]; oral route): 2.5
- lowest concentration, Dermatophyte skin score reduced to ≤1 ([2]; IV route): 2.5
- lowest concentration, Dermatophyte skin score reduced to ≤1 ([2]; oral route): 2.5
- lowest concentration, Kidney Candida CFU reduced by 1 log or more [4]: 5
- Solubility ([3]; solvent: 0.1N HCl, measured pH 1.25 to 1.75, monohydrochloride, 60 min): > 6000 µg/mL

Structure (SMILES): CN1CCN(CCC(=O)OC(Cn2ncn(-c3ccc(N4CCN(c5ccc(OC[C@H]6CO[C@](Cn7cncn7)(c7ccc(F)cc7F)O6)cc5)CC4)cc3)c2=O)C(C)(C)C)CC1 (stereo partly drawn) [Compound 33]
- solubility at 1 h [3, 5]: > 6000 µg/mL

Structure (SMILES): CC(C)(C)C(Cn1ncn(-c2ccc(N3CCN(c4ccc(OC[C@H]5CO[C@](Cn6cncn6)(c6ccc(F)cc6)O5)cc4)CC3)cc2)c1=O)OP(=O)(O)O (mixture of isomers) [Compound 9, (±)-ammonium cis-1-[[4-[4-[4-[4-[[2-(4-fluorophenyl)-2-(1H-1,2,4-triazol-1-ylmethyl)-1,3-dioxolan-4-yl]methoxy]phenyl]-1-piperazinyl]phenyl]-4,5-dihydro-5-oxo-1H-1,2,4-triazol-1-yl]methyl]-2,2-dimethylpropyl phosphate]
- solubility at 1 h [3, 6]: 2650 µg/mL

Structure (SMILES): CC(C)(C)C(Cn1ncn(-c2ccc(N3CCN(c4ccc(OC[C@H]5CO[C@](Cn6cncn6)(c6ccc(F)cc6F)O5)cc4)CC3)cc2)c1=O)OC(=O)CCN1CCCC1 (mixture of isomers) [Compound 37, (±)-cis-1-[[4-[4-[4-[4-[[2-(2,4-difluorophenyl)-2-(1H-1,2,4-triazol-1-ylmethyl)-1,3-dioxolan-4-yl]methoxy]phenyl]-1-piperazinyl]phenyl]-4,5-dihydro-5-oxo-1H-1,2,4-triazol-1-yl]methyl]-2,2-dimethylpropyl 1-pyrrolidinepropanoate . monohydrochloride . monohydrate]
- solubility at 1 h [3, 5]: > 6000 µg/mL

Structure (SMILES): CC(C)(C)C(Cn1ncn(-c2ccc(N3CCN(c4ccc(OC[C@H]5CO[C@](Cn6cncn6)(c6ccc(F)cc6F)O5)cc4)CC3)cc2)c1=O)OP(=O)(O)O (mixture of isomers) [Compound 3, (±)-ammonium cis-1-[[4-[4-[4-[4-[[2-(2,4-difluorophenyl)-2-(1H-1,2,4-triazol-1-ylmethyl)-1,3-dioxolan-4-yl]methoxy]phenyl]-1-piperazinyl]phenyl]-4,5-dihydro-5-oxo-1H-1,2,4-triazol-1-yl]methyl]-2,2-dimethylpropyl phosphate]
- lowest concentration, Vaginal Candida CFU reduced by 1 log or more ([1]; IV route): 2.5
- lowest concentration, Vaginal Candida CFU reduced by 1 log or more ([1]; oral route): 2.5
- lowest concentration, Dermatophyte skin score reduced to ≤1 ([2]; IV route): 2.5
- lowest concentration, Dermatophyte skin score reduced to ≤1 ([2]; oral route): 2.5
- lowest concentration, Kidney Candida CFU reduced by 1 log or more [4]: 10
- solubility at 1 h [3, 6]: 31900 µg/mL

Structure (SMILES): CC(C)(C)C(Cn1ncn(-c2ccc(N3CCN(c4ccc(OC[C@H]5CO[C@](Cn6cncn6)(c6ccc(Cl)cc6)O5)cc4)CC3)cc2)c1=O)OP(=O)(O)O (mixture of isomers) [Compound 7, (±)-ammonium cis-1-[[4-[4-[4-[4-[[2-(4-chlorophenyl)-2-(1H-1,2,4-triazol-1-yl-methyl)-1,3-dioxolan-4-yl]methoxy]phenyl]-1-piperazinyl]phenyl]-4,5-dihydro-5-oxo-1H-1,2,4-triazol-1-yl]methyl]-2,2-dimethylpropyl phosphate(ester) monohydrate]
- solubility at 1 h [3, 6]: 350 µg/mL

Structure (SMILES): CCN(CC)CC(=O)OC(Cn1ncn(-c2ccc(N3CCN(c4ccc(OC[C@H]5CO[C@](Cn6cncn6)(c6ccc(F)cc6F)O5)cc4)CC3)cc2)c1=O)C(C)(C)C (stereo partly drawn) [Compound 30]
- solubility at 1 h [3, 5]: 5220 µg/mL (≈ 6.29 mM)

Structure (SMILES): CC(C)(C)C(Cn1ncn(-c2ccc(N3CCN(c4ccc(OC[C@H]5CO[C@](Cn6cncn6)(c6ccc(F)cc6F)O5)cc4)CC3)cc2)c1=O)OC(=O)CN1CCN(CCO)CC1 (stereo partly drawn) [Compound 31]
- solubility at 1 h [3, 5]: > 6000 µg/mL

Structure (SMILES): CC(C)(C)C(Cn1ncn(-c2ccc(N3CCN(c4ccc(OC[C@H]5CO[C@](Cn6cncn6)(c6ccc(F)cc6F)O5)cc4)CC3)cc2)c1=O)OP(=O)(O)Oc1ccccc1 (mixture of isomers) [Compound 2, (±)-cis-1-[[4-[4-[4-[4-[[2-(2,4-difluorophenyl)-2-(1H-1,2,4-triazol-1-ylmethyl)-1,3-dioxolan-4-yl]methoxy]phenyl]-1-piperazinyl]phenyl]-4,5-dihydro-5-oxo-1H-1,2,4-triazol-1-yl]methyl]-2,2-dimethylpropyl phenyl sodium phosphate]
- solubility at 1 h ([3]; solvent: water, measured pH 6.65 to 7.01): > 6000 µg/mL
